Source: patent US20130022629A1, “Modulators of Immunoinhibitory Receptor PD-1, and Methods of Use Thereof” (priority 2010, published 2013)
Entries after “also recorded” stand apart in the source; their conditions may differ.

How the values were obtained:
[1] = biological target: T1, PD-1 (Mus musculus, UniProt Q02242); test: Primary screen: IFN-γ production by PD-1^C T cells with plate-bound anti-CD3 plus PD-L2Ig or control Ig; type: cell-based; settings: compared with negative control wells on the plate (FIG. 2)
T1 construct: expressed in transfected cells; host or cells: CD4 T cells purified from spleens of PD-1^C transgenic mice (transgene-driven constitutive PD-1)
T1 sequence (Q02242 25-288): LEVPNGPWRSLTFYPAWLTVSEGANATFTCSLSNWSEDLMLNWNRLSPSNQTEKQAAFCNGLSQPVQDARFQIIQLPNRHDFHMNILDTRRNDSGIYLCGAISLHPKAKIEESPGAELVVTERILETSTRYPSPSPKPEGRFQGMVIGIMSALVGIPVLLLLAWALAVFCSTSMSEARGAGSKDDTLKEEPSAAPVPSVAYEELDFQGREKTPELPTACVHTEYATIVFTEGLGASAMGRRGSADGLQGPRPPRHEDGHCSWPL
Experimental: In certain embodiments, PD-1^C T cells are cultured with a proliferative stimulus (anti-CD3) plus either PD-L2-Ig or a negative control Ig fusion protein. PD-1^C T cells proliferate less and produce lower amounts of cytokines when cultured with PD-L2-Ig as compared to the negative control Ig fusion protein because PD-1-ligands deliver an inhibitory signal through PD-1. Compounds of interest will modulate this inhibitory interaction in wild type and PD-1^C T cells, but not in PD-1^−/− cells. Thus, compounds which are antagonists will block PD-1 inhibitory function and lead to increased T cell responses by wild type and PD-1^C T cells, but will not affect PD-1^−/− T cells. Conversely, compounds which are agonists will deliver an inhibitory signal, and reduce T cell responses by wild type and PD-1^C T cells, but not PD-1^−/− T cells.
Because it is believed that PD-1 can inhibit cytokine (IFN-γ) production to a greater extent than T cell proliferation in a number of situations (36, 44), in certain embodiments IFN-γ production was chosen as the readout, using a bead-based fluorescent ELISA assay. These beads have a broad dynamic range (about 1 pg/mL to about 5 ng/mL), robust detection of cytokines from complex solutions (including culture media), minimal time requirement (about 3 hours from start to finish), and homogeneous format (no washing required). […]

[2] = biological target: T1, PD-1; test: Validation (secondary screen): rescue of PD-1 mediated inhibition of IFN-γ production in PD-1^C (Tg) T cells; type: cell-based; settings: PD-L2Ig versus control Ig (FIG. 3)
Excerpt: (§1) In vitro assays to test for compounds that interfere with the PD-1 function have been developed. These assays utilize unique mouse strains to specifically identify PD-1-specific effects. For example, a transgenic mouse that constitutively expresses PD-1 on T cells (PD-1^C) has been developed (43). It has recently been disclosed that PD-1^C T cells are very susceptible to signaling through PD-1, as measured by a decrease in T cell proliferation and cytokine production. These PD-1^C T cells can be used to assess the functional effects of small molecules. A PD-1 deficient mouse (PD-1^−/−) has also been developed (44), and T cells from such mice will serve as useful controls for in vitro as well as in vivo studies.
In certain embodiments, PD-1^C T cells are cultured with a proliferative stimulus (anti-CD3) plus either PD-L2-Ig or a negative control Ig fusion protein. […]
The specificity of the effects of sulfamonomethoxine and sulfamethizole were assessed by comparing responses of wild type, PD-1^c, and PD-1^−/− T cells. The effects of sulfamonomethoxine and sulfamethizole were evaluated over a range of compound concentrations (dilution series from 16 nM to 80 μM) and analyzed their effects on T cell proliferation and cytokine production. […]

[3] = system: PD-1^−/− T cells; test: Specificity control: responses of PD-1^−/− (KO) T cells to compound; type: cell-based, mouse; settings: PD-1^−/− T cells over the range of compound concentrations (FIG. 3)
Excerpt: as §1, with “studies. In certain embodiments, PD-1^C T cells are cultured with a proliferative stimulus (anti-CD3) plus either PD-L2-Ig or a negative control Ig fusion protein. […] The specificity of the effects of sulfamonomethoxine and sulfamethizole were assessed by comparing responses of wild type, PD-1^c, and PD-1^−/− T cells. The effects of sulfamonomethoxine and sulfamethizole were evaluated over a range of compound concentrations (dilution series from 16 nM to 80 μM) and analyzed their effects on T cell proliferation and cytokine production. […]” for “studies.”

Row | Structure (SMILES) | rescue of IFN-γ production in the primary screen [1] | specificity: rescue/block of PD-1 mediated inhibition in PD-1 Tg cells [2] | effect on PD-1 KO T cells [3]
1 | Cc1nnc(NS(=O)(=O)c2ccc(N)cc2)s1 [sulfamethizole] | rescue of IFN-γ production above the negative control wells | block of PD-1 mediated inhibition in PD-1 Tg cells only when PD-L2 was present; also recorded: rescue of PD-1 mediated inhibition in PD-1 Tg cells only when PD-L2 was present | no effect
2 | COc1cc(NS(=O)(=O)c2ccc(N)cc2)ncn1 [sulfamonomethoxine] | rescue of IFN-γ production above the negative control wells | block of PD-1 mediated inhibition in PD-1 Tg cells only when PD-L2 was present; also recorded: rescue of PD-1 mediated inhibition in PD-1 Tg cells only when PD-L2 was present | no effect
